Like-named read-outs stand apart in the source and are kept apart here.
Legend:
[1] = Taste profiling of lemon/lime carbonates and colas; format: in vivo; details: HFCS 10%, aspartame 500 ppm, sucralose 200 ppm, blends 30.8 ppm/5.0%; for Average Score: score 1, poor-5, good, sucrose 10%
Protocol: Cola and lemon/lime beverages were prepared using the following formulations and sweetened with sucrose, HFCS (55% fructose), aspartame, sucralose, monatin (racemic mix described in Example 14), monatin/sucrose, or monatin/HFCS. One part of syrup was added to 5.5 parts carbonated water and evaluated.
Assessments were carried out ‘double blind’ by a panel of trained tasters. The sucrose-sweetened product was identified as the control and all other products randomly coded. Panelists were asked to assess the randomly coded sample relative to the control for the following attributes:
Panelists also were asked assign a score (1; poor-5; good) for the quality of the sweetener system. A summary of the comments generated together with the average score awarded is presented in Tables 12 and 13 for lemon/lime carbonates and colas, respectively. […] Blends of monatin/carbohydrate rated higher. In the cola, monatin was similar to aspartame.

[2] = Sensory evaluation of soft drinks (lemon/lime, orangeade, cola); format: in vivo; details: Cola; aspartame 550 ppm, sucralose 220 ppm, R,R monatin 45 ppm
Protocol: Beverages (cola, lemon-lime and orange) were formulated and sweetened with aspartame, sucralose or R,R monatin. Qualitative evaluation was carried out.
The term “throw” refers to dilution in water. For example, a throw of “1+4” means 1 part concentrate formulation to 4 parts water. Thus, if a concentrate formulation includes 0.021% wt/vol (i.e., 210 ppm) of R,R monatin, for example, a throw of 1+4 makes a diluted beverage containing 42 ppm (210 ppm/5) R,R monatin.
Final ready-to-drink beverages (after throw) contained sweetener concentrations as follows:
Evaluation of these soft drinks was carried out by a panel (n=6) of assessors who evaluated each set of drinks on separate tasting occasions.

[3] = Sensory stability of monatin and aspartame at pH 2.5, 3.0, 4.0 at 40° C.; format: physicochemical; details: for Rate constant (k) of sweetness loss / half-life: pseudo-first order assumed; for SEV / Retention of Sweetness: stored 40° C., monatin ~55 ppm, aspartame 400 ppm; for half-life: phosphate/citrate buffer, read-out: Half-life (t½) of sweetness loss (converted)
Protocol: The sensory stability of monatin solutions prepared at pH 2.5, 3.0 and 4.0 and stored at 40° C. was monitored for 100 days. Loss of sweetness from these solutions was compared with the losses of sweetness from aspartame solutions prepared and stored under identical conditions.
The sensory stability of monatin (8% SEV, ˜55 ppm, synthetic blend containing approximately 96% of the 2R,4R/2S, 4S enantiometric pair and 4% of the 2R,4S/2S,4R enantiometric pair) in phosphate/citrate buffers having a pH of 2.5, 3.0, and 4.0 was examined after storage at 40° C. The stability of monatin was compared to that of aspartame (400 ppm) in the same buffers. Three sucrose reference solutions were prepared in the same phosphate/citrate buffers as the monatin and aspartame solutions. All prepared solutions were stored in the dark.
Buffer compositions: pH 2.5 Phosphoric acid (75% solution) 0.127% (w/v) Tri-sodium citrate monohydrate 0.005% (w/v) • pH 3.0 Phosphoric acid (75% solution) 0.092% (w/v) Tri-sodium citrate monohydrate 0.031% (w/v) • pH 4.0 Phosphoric acid (75% solution) 0.071% (w/v) Tri-sodium citrate monohydrate 0.047% (w/v)
The sweetness of each sweetener relative to sucrose was assessed in duplicate by a panel (n=8) of trained sensory evaluators experienced in the sweetness estimation procedure. All samples (in the same buffers) were served in duplicate at a temperature of 22° C.±1° C. Monatin (test) solutions, coded with 3 digit random number codes were presented individually to panelists, in random order. Sucrose reference standards, ranging from 4.0-10.0% (w/v) sucrose, increasing in steps of 0.5% (w/v) sucrose were also provided. Panelists were asked to estimate sweetness by comparing the sweetness of the test solution to the sucrose standards. This was carried out by taking 3 sips of the test solution, followed by a sip of water, followed by 3 sips of sucrose standard followed by a sip of water, etc. Panelists were encouraged to estimate the sweetness to one decimal place, e.g., 6.8, 8.5. A five minute rest period was imposed between evaluating the test solutions. Panelists were also asked to rinse well and eat a cracker to reduce any potential carry over effects.
If a pseudo-first order breakdown reaction is assumed, a plot of logn percentage retention versus time (logn%RTN v. t) allows estimation of the half-life (t½) and rate constant (k) of sweetness loss under any given set of conditions. In so doing, the kinetics of monatin and aspartame sweetness loss may be summarized as follows in Table 25.

[4] = cola, sucrose 10% (control), monatin 80 ppm
[5] = lemon/lime carbonate, sucrose 10% (control), monatin 67 ppm

SMILES: NC(CC(O)(Cc1c[nH]c2ccccc12)C(=O)O)C(=O)O (racemic) [Monatin, 2-hydroxy-2-(indol-3-ylmethyl)-4-aminoglutaric acid]
- Aftertaste [1, 4]: Some lingering
- Mouthfeel [1, 4]: Thinner than control.
- Aftertaste [1, 5]: Quite clean, slight
- Mouthfeel [1, 5]: Slightly less
- Sweetness Profile [1, 5]: Slight delay in onset -
- Average Score ([1]; cola, monatin 80 ppm): 2.9
- Average Score ([1]; lemon/lime carbonate, monatin 67 ppm): 4.0
- Comments (sensory evaluation) [2]: Overall, judged quite similar qualitatively
- Sweetness Retained ([3]; after 100 days storage at pH 2.5 at 40° C.): 29%
- Sweetness Retained ([3]; after 100 days storage at pH 3.0 at 40° C.): 58%
- Sweetness Retained ([3]; after 100 days storage at pH 4.0 at 40° C.): 78%
- Rate constant (k) of sweetness loss ([3]; pH 2.5, 40° C.): 0.011 day⁻¹
- SEV ([3]; pH 2.5 buffer, day 0): 7.35 % sucrose
- Retention of Sweetness ([3]; pH 2.5 buffer, day 1): 93.3%
- SEV ([3]; pH 2.5 buffer, day 1): 6.86 % sucrose
- Retention of Sweetness ([3]; pH 2.5 buffer, day 2): 91.2%
- SEV ([3]; pH 2.5 buffer, day 2): 6.70 % sucrose
- Retention of Sweetness ([3]; pH 2.5 buffer, day 3): 88.4%
- SEV ([3]; pH 2.5 buffer, day 3): 6.50 % sucrose
- Retention of Sweetness ([3]; pH 2.5 buffer, day 4): 85.2%
- SEV ([3]; pH 2.5 buffer, day 4): 6.26 % sucrose
- Retention of Sweetness ([3]; pH 2.5 buffer, day 7): 82.7%
- SEV ([3]; pH 2.5 buffer, day 7): 6.08 % sucrose
- Retention of Sweetness ([3]; pH 2.5 buffer, day 8): 81.4%
- SEV ([3]; pH 2.5 buffer, day 8): 5.98 % sucrose
- Retention of Sweetness ([3]; pH 2.5 buffer, day 9): 80.1%
- SEV ([3]; pH 2.5 buffer, day 9): 5.89 % sucrose
- Retention of Sweetness ([3]; pH 2.5 buffer, day 11): 78.6%
- SEV ([3]; pH 2.5 buffer, day 11): 5.78 % sucrose
- Retention of Sweetness ([3]; pH 2.5 buffer, day 50): 62.7%
- SEV ([3]; pH 2.5 buffer, day 50): 4.61 % sucrose
- Retention of Sweetness ([3]; pH 2.5 buffer, day 100): 28.6%
- SEV ([3]; pH 2.5 buffer, day 100): 2.10 % sucrose
- Rate constant (k) of sweetness loss ([3]; pH 3.0, 40° C.): 0.006 day⁻¹
- SEV ([3]; pH 3.0 buffer, day 0): 7.08 % sucrose
- Retention of Sweetness ([3]; pH 3.0 buffer, day 1): 99.6%
- SEV ([3]; pH 3.0 buffer, day 1): 7.05 % sucrose
- Retention of Sweetness ([3]; pH 3.0 buffer, day 2): 93.2%
- SEV ([3]; pH 3.0 buffer, day 2): 6.60 % sucrose
- Retention of Sweetness ([3]; pH 3.0 buffer, day 3): 91.4%
- SEV ([3]; pH 3.0 buffer, day 3): 6.47 % sucrose
- Retention of Sweetness ([3]; pH 3.0 buffer, day 4): 91.6%
- SEV ([3]; pH 3.0 buffer, day 4): 6.49 % sucrose
- Retention of Sweetness ([3]; pH 3.0 buffer, day 7): 85.3%
- SEV ([3]; pH 3.0 buffer, day 7): 6.04 % sucrose
- Retention of Sweetness ([3]; pH 3.0 buffer, day 8): 83.8%
- SEV ([3]; pH 3.0 buffer, day 8): 5.93 % sucrose
- Retention of Sweetness ([3]; pH 3.0 buffer, day 9): 83.1%
- SEV ([3]; pH 3.0 buffer, day 9): 5.88 % sucrose
- Retention of Sweetness ([3]; pH 3.0 buffer, day 11): 83.1%
- SEV ([3]; pH 3.0 buffer, day 11): 5.88 % sucrose
- Retention of Sweetness ([3]; pH 3.0 buffer, day 50): 72.3%
- SEV ([3]; pH 3.0 buffer, day 50): 5.12 % sucrose
- Retention of Sweetness ([3]; pH 3.0 buffer, day 100): 57.9%
- SEV ([3]; pH 3.0 buffer, day 100): 4.10 % sucrose
- Rate constant (k) of sweetness loss ([3]; pH 4.0, 40° C.): 0.003 day⁻¹
- SEV ([3]; pH 4.0 buffer, day 0): 7.40 % sucrose
- Retention of Sweetness ([3]; pH 4.0 buffer, day 3): 95.7%
- SEV ([3]; pH 4.0 buffer, day 3): 7.08 % sucrose
- Retention of Sweetness ([3]; pH 4.0 buffer, day 8): 86.8%
- SEV ([3]; pH 4.0 buffer, day 8): 6.42 % sucrose
- Retention of Sweetness ([3]; pH 4.0 buffer, day 11): 85.9%
- SEV ([3]; pH 4.0 buffer, day 11): 6.36 % sucrose
- Retention of Sweetness ([3]; pH 4.0 buffer, day 17): 82.4%
- SEV ([3]; pH 4.0 buffer, day 17): 6.10 % sucrose
- Retention of Sweetness ([3]; pH 4.0 buffer, day 24): 84.5%
- SEV ([3]; pH 4.0 buffer, day 24): 6.25 % sucrose
- Retention of Sweetness ([3]; pH 4.0 buffer, day 50): 82.9%
- SEV ([3]; pH 4.0 buffer, day 50): 6.14 % sucrose
- Retention of Sweetness ([3]; pH 4.0 buffer, day 100): 78.4%
- SEV ([3]; pH 4.0 buffer, day 100): 5.80 % sucrose
- half-life ([3]; pH 2.5, 40° C.): 65 days
- half-life ([3]; pH 3.0, 40° C.): 115 days
- half-life ([3]; pH 4.0, 40° C.): 230 days
